Literature values, collected in patent EP0275444A1, “Pharmaceutical form for urapidil” (BYK GULDEN LOMBERG CHEMISCHE FABRIK GMBH, priority 1986, dated 1988).
Like-named read-outs stand apart in the source and are kept apart here.

Tests used:
[1] = in vivo

| Löslichkeit (above pH 4, in water) | Eliminationshalbwertzeit [1] | Löslichkeit (at the higher pH values of the intestine) | SMILES |
| --- | --- | --- | --- |
| praktisch wasserunlöslich | – | – | OCCN(CCO)c1nc(N2CCCCC2)c2nc(N(CCO)CCO)nc(N3CCCCC3)c2n1 [Dipyridamol] |
| – | 2,7 Stunden | ausreichende Löslichkeit | COc1ccccc1N1CCN(CCCNc2cc(=O)n(C)c(=O)n2C)CC1 [Urapidil, 6-({3-[4-(o-Methoxyphenyl)-1-piperazinyl]propyl}amino)-1,3-dimethyluracil] |
